Laboratory results reported in BindingDB's records for doi:10.1021/jm00018a012 (Pfizer, 1995).

What follows are compounds tested against Platelet-activating factor receptor (Oryctolagus cuniculus) (assay: In vitro antagonist activity against platelet activating factor (PAF) receptor, using washed rabbit platelets).

Row | Compound | IC50
1 | Cc1nn(C)c2c1N=C(c1ccc(-n3c(C)nc4cnccc43)cc1)CC(=O)N2C [1,3,8-Trimethyl-5-[4-(2-methyl-imidazo[4,5-c]pyridin-1-yl)-phenyl]-6,8-dihydro-1H-pyrazolo[3,4-b][1,4]diazepin-7-one] | 17 nM
2 | Cc1nn(C)c2c1N=C(c1ccc(-n3c(C)nc4cnccc43)cc1)CC(=O)N2 [1,3-Dimethyl-5-[4-(2-methyl-imidazo[4,5-c]pyridin-1-yl)-phenyl]-6,8-dihydro-1H-pyrazolo[3,4-b][1,4]diazepin-7-one] | 26 nM
3 | Cc1nn(C)c2c1NC(=O)CC(c1ccc(-n3c(C)nc4cnccc43)cc1)=N2 [1,3-Dimethyl-7-[4-(2-methyl-imidazo[4,5-c]pyridin-1-yl)-phenyl]-4,6-dihydro-1H-pyrazolo[3,4-b][1,4]diazepin-5-one] | 1 nM
4 | Cc1cc2c(cc1C)-n1c(C)nnc1CC(c1ccc(-n3c(C)nc4cnccc43)cc1)=N2 [1,8,9-Trimethyl-5-[4-(2-methyl-imidazo[4,5-c]pyridin-1-yl)-phenyl]-4H-2,3,6,10b-tetraaza-benzo[e]azulene] | 2.4 nM
5 | Cc1nc2cnccc2n1-c1ccc(C2=Nc3c(-c4ccccc4)nn(C)c3N(C)C(=O)C2)cc1 [1,8-Dimethyl-5-[4-(2-methyl-imidazo[4,5-c]pyridin-1-yl)-phenyl]-3-phenyl-6,8-dihydro-1H-pyrazolo[3,4-b][1,4]diazepin-7-one] | 0.5 nM
6 | Cc1nc2cnccc2n1-c1ccc(C2=Nc3c(-c4ccccn4)nn(C)c3N(C)C(=O)C2)cc1 [1,8-Dimethyl-5-[4-(2-methyl-imidazo[4,5-c]pyridin-1-yl)-phenyl]-3-pyridin-2-yl-6,8-dihydro-1H-pyrazolo[3,4-b][1,4]diazepin-7-one] | 14 nM
7 | Cc1nc2cnccc2n1-c1ccc(C2=Nc3c(-c4cccnc4)nn(C)c3N(C)C(=O)C2)cc1 [1,8-Dimethyl-5-[4-(2-methyl-imidazo[4,5-c]pyridin-1-yl)-phenyl]-3-pyridin-3-yl-6,8-dihydro-1H-pyrazolo[3,4-b][1,4]diazepin-7-one] | 2.4 nM
8 | Cc1nc2cnccc2n1-c1ccc(C2=Nc3c(-c4ccncc4)nn(C)c3N(C)C(=O)C2)cc1 [1,8-Dimethyl-5-[4-(2-methyl-imidazo[4,5-c]pyridin-1-yl)-phenyl]-3-pyridin-4-yl-6,8-dihydro-1H-pyrazolo[3,4-b][1,4]diazepin-7-one] | 5.2 nM
9 | Cc1nc2cnccc2n1-c1ccc(C2=Nc3c(-c4cccs4)nn(C)c3N(C)C(=O)C2)cc1 [1,8-Dimethyl-5-[4-(2-methyl-imidazo[4,5-c]pyridin-1-yl)-phenyl]-3-thiophen-2-yl-6,8-dihydro-1H-pyrazolo[3,4-b][1,4]diazepin-7-one] | 1.5 nM
10 | Cc1nc2cnccc2n1-c1ccc(C2=Nc3c(-c4ccccc4)nn(C)c3NC(=O)C2)cc1 [1-Methyl-5-[4-(2-methyl-imidazo[4,5-c]pyridin-1-yl)-phenyl]-3-phenyl-6,8-dihydro-1H-pyrazolo[3,4-b][1,4]diazepin-7-one] | 0.6 nM
11 | Cc1nc2cnccc2n1-c1ccc(C2=Nc3c(c(-c4ccccc4)nn3C)NC(=O)C2)cc1 [1-Methyl-7-[4-(2-methyl-imidazo[4,5-c]pyridin-1-yl)-phenyl]-3-phenyl-4,6-dihydro-1H-pyrazolo[3,4-b][1,4]diazepin-5-one] | 2.7 nM
12 | Cc1nc2cnccc2n1-c1ccc(C2=Nc3c(C4CCCCC4)nn(C)c3N(C)C(=O)C2)cc1 [3-Cyclohexyl-1,8-dimethyl-5-[4-(2-methyl-imidazo[4,5-c]pyridin-1-yl)-phenyl]-6,8-dihydro-1H-pyrazolo[3,4-b][1,4]diazepin-7-one] | 0.7 nM
13 | Cc1nc2cnccc2n1-c1ccc(C2=Nc3c(C4CCCCC4)nn4c3N(CCCC4)C(=O)C2)cc1 [3-Cyclohexyl-6-[4-(2-methyl-imidazo[4,5-c]pyridin-1-yl)-phenyl]-1,2,5,9-tetraaza-tricyclo[7.4.1.0*4,14*]tetradeca-2,4(14),5-trien-8-one] | 0.4 nM
14 | Cc1nc2cnccc2n1-c1ccc(C2=Nc3c(CO)nn(C)c3N(C)C(=O)C2)cc1 [3-Hydroxymethyl-1,8-dimethyl-5-[4-(2-methyl-imidazo[4,5-c]pyridin-1-yl)-phenyl]-6,8-dihydro-1H-pyrazolo[3,4-b][1,4]diazepin-7-one] | 14 nM
15 | Cc1nc2cnccc2n1-c1ccc(C2=Nc3c(COCC(C)C)nn(C)c3N(C)C(=O)C2)cc1 [3-Isobutoxymethyl-1,8-dimethyl-5-[4-(2-methyl-imidazo[4,5-c]pyridin-1-yl)-phenyl]-6,8-dihydro-1H-pyrazolo[3,4-b][1,4]diazepin-7-one] | 0.8 nM
16 | Cc1nc2cnccc2n1-c1ccc(C2=Nc3c(C(C)C)nn(C)c3N(C)C(=O)C2)cc1 [3-Isopropyl-1,8-dimethyl-5-[4-(2-methyl-imidazo[4,5-c]pyridin-1-yl)-phenyl]-6,8-dihydro-1H-pyrazolo[3,4-b][1,4]diazepin-7-one] | 3.5 nM
17 | Cc1cc(C)c2c(n1)N=C(c1ccc(-n3c(C)nc4cnccc43)cc1)CC(=O)N2 [7,9-Dimethyl-4-[4-(2-methyl-imidazo[4,5-c]pyridin-1-yl)-phenyl]-1,3-dihydro-pyrido[3,4-b][1,4]diazepin-2-one] | 21 nM
18 | Cc1cnc2n1-c1cc(Cl)c(Cl)cc1N=C(c1ccc(-n3c(C)nc4cnccc43)cc1)C2 [8,9-Dichloro-1-methyl-5-[4-(2-methyl-imidazo[4,5-c]pyridin-1-yl)-phenyl]-4H-3,6,10b-triaza-benzo[e]azulene] | 1.2 nM
19 | Cc1cn2c(n1)CC(c1ccc(-n3c(C)nc4cnccc43)cc1)=Nc1cc(Cl)c(Cl)cc1-2 [8,9-Dichloro-2-methyl-5-[4-(2-methyl-imidazo[4,5-c]pyridin-1-yl)-phenyl]-4H-3,6,10b-triaza-benzo[e]azulene] | 0.3 nM
20 | Cc1nc2cnccc2n1-c1ccc(C2=Nc3cc(Cl)c(Cl)cc3-n3ccnc3C2)cc1 [8,9-Dichloro-5-[4-(2-methyl-imidazo[4,5-c]pyridin-1-yl)-phenyl]-4H-3,6,10b-triaza-benzo[e]azulene] | 1.7 nM
21 | Cc1cc2c(cc1C)-n1c(n[nH]c1=O)CC(c1ccc(-n3c(C)nc4cnccc43)cc1)=N2 [8,9-Dimethyl-5-[4-(2-methyl-imidazo[4,5-c]pyridin-1-yl)-phenyl]-2,4-dihydro-2,3,6,10b-tetraaza-benzo[e]azulen-1-one] | 55 nM
22 | Cc1cc2c(cc1C)-n1nnnc1CC(c1ccc(-n3c(C)nc4cnccc43)cc1)=N2 [8,9-Dimethyl-5-[4-(2-methyl-imidazo[4,5-c]pyridin-1-yl)-phenyl]-4H-1,2,3,6,10b-pentaaza-benzo[e]azulene] | 11 nM
23 | Cc1cc2c(cc1C)-n1cnnc1CC(c1ccc(-n3c(C)nc4cnccc43)cc1)=N2 [8,9-Dimethyl-5-[4-(2-methyl-imidazo[4,5-c]pyridin-1-yl)-phenyl]-4H-2,3,6,10b-tetraaza-benzo[e]azulene] | 2.3 nM
24 | Cc1cc2c(cc1C)-n1ccnc1CC(c1ccc(-n3c(C)nc4cnccc43)cc1)=N2 [8,9-Dimethyl-5-[4-(2-methyl-imidazo[4,5-c]pyridin-1-yl)-phenyl]-4H-3,6,10b-triaza-benzo[e]azulene] | 1.3 nM
